Test [1] deals with mouse model of rheumatoid arthritis. The conditions noted are these: in vivo; cited from earlier work.
For test [2], the system named is model of systemic lupus erythematosis. As to conditions: in vivo; cited from earlier work.
Another test concerns the target p110δ (Homo sapiens (Human), UniProt O00329). As to conditions: cited from earlier work.
The next test concerns protein kinases. As to conditions: cited from earlier work.
For test [3], the system named is ovalbumin-induced airway inflammation. The conditions noted are these: cited from earlier work.
Another test relates to Class I PI 3-kinases. The conditions noted are these: cited from earlier work.
For a further test, the system named is neutrophil migration. As to conditions: cited from earlier work.
In another test the test system is superoxide release. As to conditions: cited from earlier work.
Another test has as its target PI3Kδ (Homo sapiens (Human), UniProt O00329). The test is classed as biochemical. The conditions noted are these: PI3Kδ Alphascreen assay.

Like-named read-outs stand apart in the source and are kept apart here.

Sequence of p110δ (O00329 whole entry, species assumed): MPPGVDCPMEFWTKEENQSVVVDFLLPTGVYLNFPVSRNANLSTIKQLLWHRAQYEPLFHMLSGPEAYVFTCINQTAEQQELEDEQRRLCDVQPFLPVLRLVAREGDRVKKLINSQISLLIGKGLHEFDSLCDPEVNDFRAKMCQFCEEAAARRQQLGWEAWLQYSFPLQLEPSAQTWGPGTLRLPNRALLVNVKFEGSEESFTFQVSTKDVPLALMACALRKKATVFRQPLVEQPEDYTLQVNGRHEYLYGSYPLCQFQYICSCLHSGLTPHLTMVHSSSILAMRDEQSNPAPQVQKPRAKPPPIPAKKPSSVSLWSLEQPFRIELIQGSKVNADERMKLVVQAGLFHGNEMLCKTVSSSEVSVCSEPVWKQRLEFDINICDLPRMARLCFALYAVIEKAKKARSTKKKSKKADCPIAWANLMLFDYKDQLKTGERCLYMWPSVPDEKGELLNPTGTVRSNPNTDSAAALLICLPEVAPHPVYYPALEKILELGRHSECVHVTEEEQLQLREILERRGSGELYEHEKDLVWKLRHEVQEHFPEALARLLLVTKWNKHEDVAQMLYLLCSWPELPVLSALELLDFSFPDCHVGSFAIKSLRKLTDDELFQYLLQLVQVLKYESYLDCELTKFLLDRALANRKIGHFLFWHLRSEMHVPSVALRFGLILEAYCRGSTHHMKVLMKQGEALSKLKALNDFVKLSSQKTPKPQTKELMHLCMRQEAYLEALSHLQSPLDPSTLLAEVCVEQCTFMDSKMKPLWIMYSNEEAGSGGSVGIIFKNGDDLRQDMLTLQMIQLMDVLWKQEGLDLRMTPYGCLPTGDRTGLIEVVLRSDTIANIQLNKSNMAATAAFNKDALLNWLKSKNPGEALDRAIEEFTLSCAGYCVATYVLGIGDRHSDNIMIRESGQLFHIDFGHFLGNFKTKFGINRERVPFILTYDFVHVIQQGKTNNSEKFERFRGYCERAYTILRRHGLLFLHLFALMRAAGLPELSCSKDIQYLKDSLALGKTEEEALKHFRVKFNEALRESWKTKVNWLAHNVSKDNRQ
Sequence of p110δ (P27986 whole entry partner, species assumed): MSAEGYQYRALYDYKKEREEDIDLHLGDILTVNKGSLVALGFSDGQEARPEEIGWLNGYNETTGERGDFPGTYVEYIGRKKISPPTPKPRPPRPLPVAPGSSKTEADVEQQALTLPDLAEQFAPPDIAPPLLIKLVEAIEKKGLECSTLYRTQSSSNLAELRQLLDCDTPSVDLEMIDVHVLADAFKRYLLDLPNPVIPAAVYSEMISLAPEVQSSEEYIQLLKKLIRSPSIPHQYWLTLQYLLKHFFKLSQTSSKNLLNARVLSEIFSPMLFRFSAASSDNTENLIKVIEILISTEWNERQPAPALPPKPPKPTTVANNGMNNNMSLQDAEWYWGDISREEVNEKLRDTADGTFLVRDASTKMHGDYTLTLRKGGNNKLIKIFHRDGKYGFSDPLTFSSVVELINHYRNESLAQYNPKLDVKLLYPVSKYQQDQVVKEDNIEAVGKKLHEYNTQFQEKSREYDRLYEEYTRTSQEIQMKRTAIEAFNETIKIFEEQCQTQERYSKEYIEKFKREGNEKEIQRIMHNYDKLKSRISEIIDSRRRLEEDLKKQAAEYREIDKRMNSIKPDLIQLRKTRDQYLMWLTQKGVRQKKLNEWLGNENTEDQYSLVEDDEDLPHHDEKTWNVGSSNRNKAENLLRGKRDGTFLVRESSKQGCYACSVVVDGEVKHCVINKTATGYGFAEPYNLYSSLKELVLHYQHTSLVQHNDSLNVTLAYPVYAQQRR
Sequence of PI3Kδ (O00329 whole entry): as the sequence (O00329 whole entry, species assumed) above
Sequence of PI3Kδ (P27986 whole entry partner): as the sequence (P27986 whole entry partner, species assumed) above

Turning to `O=C1NC(=O)/C(=C\c2ccc3nccnc3c2)S1` [AS 605240], in [1], the “efficacy in a mouse model of rheumatoid arthritis” value is listed as “efficacious”. In addition, the “onset of disease in a model of systemic lupus erythematosis” value in test [2] is on record as “delay onset of disease”.
As for `Cc1ccccc1-n1c(Cn2cnc3c(N)ncnc32)nc2cccc(C)c2c1=O` [IC87114], the “inhibits p110δ” value at p110δ is “high nanomolar range (triple digit)”. Also, the “activity against any protein kinases tested” value in the test with protein kinases is recorded as “no activity”. Moreover, the “inflammation and disease in a murine model of asthma” value in [3] was “significantly ameliorate inflammation and disease”.
As to `O=c1cc(N2CCOCC2)oc2c(-c3ccccc3)cccc12` [LY294002], in the test with Class I PI 3-kinases (LY294002, read-out: IC50 values against each of these PI 3-kinases), the concentration for half-maximal inhibition (IC50) was about 1000 nM. Also, the neutrophil migration entry with neutrophil migration was “block”. The superoxide release result in the test on superoxide release is reported as “block”.
Compound `Cc1c(N2CCN(C(=O)OC(C)(C)C)CC2)nc2cc(F)cc(F)c2c1N1CC2(CCOCC2)c2ncc(N3CCOCC3)cc21` [tert-butyl 4-(5,7-difluoro-3-methyl-4-(6′-(4-morpholinyl)-2,3,5,6-tetrahydrospiro[pyran-4,3′-pyrrolo[3,2-b]pyridin]-1′(2′H)-yl)-2-quinolinyl)-1-piperazinecarboxylate] came in with an inhibitory constant (Ki) at PI3Kδ of 12.4 nM. That is a double-digit nanomolar value.
On to `COC[C@H]1OC(=O)c2coc3c2[C@@]1(C)C1=C(C3=O)[C@@H]2CCC(=O)[C@@]2(C)C[C@H]1OC(C)=O` [wortmannin], for which the IC50 in the test on Class I PI 3-kinases (wortmannin, read-out: IC50 values against each of the various Class I PI 3-kinases) was 1 to 10 nM. Moreover, in the test on neutrophil migration, the neutrophil migration result is reported as “block”. Moreover, the superoxide release result in the test on superoxide release was “block”.

(Values after patent US8765940B2 (priority 2009, dated 2014).)
